Assay results published in paper PMC2346451 (PLoS ONE, 2008).

Test system: dorsal root ganglion neurons
Experiment: Whole-cell patch clamp of acutely isolated dorsal root ganglion neurons
Assay type: cell-based, rat
From the text: Dorsal root ganglion neurons from all spinal levels were removed from postnatal day 12 to 20 Sprague Dawley rats and the nerve roots trimmed. Calcium- and magnesium-free (CMF) Hank's solution contained (in mM): 136.9 sodium chloride, 5.4 potassium chloride, 0.34 dibasic sodium orthophosphate, 0.44 monopotassium phosphate, 5.6 glucose, 5 4-(2-hydroxyethyl)-1-piperazineethanesulfonic acid, 0.005% phenol red, pH 7.4. CMF Hank's was used throughout the isolation and enzymatic treatments. The isolated ganglia were treated for 20 minutes at 37°C with 20 U/ml of papain (Worthington Biochemical, Lakewood, NJ) and 5 mM cysteine. The ganglia were then transferred to CMF Hank's with 3 mg/ml collagenase (type I; Worthington) and 4 mg/ml dispase (neutral type II; Roche Applied Science, Indianapolis, IN) for 20 minutes at 37°C. Individual neurons were dispersed by trituration through a fire-polished glass Pasteur pipette in 3 ml of media containing DMEM, 5% horse serum, 10% fetal bovine serum, 1% penicillin/streptomycin, and 100 ng/ml Nerve Growth Factor (7S subunit; Invitrogen). The neurons were preplated in tissue culture-treated Petri dishes for 1 hour when used for electrophysiology (3 hours for calcium imaging), and then plated on poly-L-lysine (1 mg/ml)-coated glass coverslips. Dorsal root ganglion neurons were allowed to settle for 1–2 hours at 37°C before patching or imaging over the next 6 hours.
Electrophysiological experiments were performed using the whole-cell patch-clamp technique at room temperature. Modified Ringer's solution with low chloride and nominal calcium contained (in mM): 130 sodium hydroxide, 5 potassium chloride, 1 magnesium chloride, 10 sodium 4-(2-hydroxyethyl)-1-piperazineethanesulfonic acid, 10 2-(N-morpholino)ethanesulfonic acid, and 20 glucose (pH 7.4; 310 milli-osmolar). […] 2 mM calcium chloride was included in the external solution where noted. To activate TRPV1, the modified Ringer's solution was made at pH 5 (low pH solution) and the chloride concentration was kept to a minimum to prevent contamination of the TRPV1 currents with acid-activated chloride currents. For recordings from heterologously expressing cells, the internal pipette solution contained (in mM): 125 cesium-Methanesulfonate, 10 cesium (1.2-bis(o-aminophenoxy)ethane-N,N,N',N'-tetraacetic acid, 8 sodium chloride, 4 magnesium adenosine triphosphate, and 10 HEPES (pH 7.2; 290 mOSM; nominal free calcium concentrations). For TRPA1 and dorsal root ganglion recordings, the internal pipette solution contained (in mM): 110 cesium-Methanesulfonate, 0.5 cesium4BAPTA, 8 sodium chloride, 0.2 calcium chloride, 4 magnesium-ATP, 4 sodium-GTP, and 10 4-(2-hydroxyethyl)-1-piperazineethanesulfonic acid (pH 7.2; 290 mOSM; 100 nM free calcium internal). MaxChelator was used to calculate the free calcium concentration (http://www.stanford.edu/cpatton/maxc.html).
Recordings were obtained using an Axopatch 200B amplifier, Digidata 1322A analog-to-digital converter, and pClamp 8.01 software (Molecular Devices, Union City, CA). Data were low-pass filtered at 2 kHz and digitized at 5 kHz. Borosilicate glass pipettes (World Precision Instruments, Sarasota, FL) were typically 3 MΩ pipette resistance after fire polishing. Cell capacitance was measured for each cell, and access resistance compensated to ∼80%. Recordings were begun ∼5 minutes after initial rupture to ensure initial steady state conditions. Current-voltage (I-V) relations were obtained using a ramp protocol. Voltage ramps (400 ms) from −100 to +40 or +100 mV were applied every 1–2 seconds and the holding potential was either −70 mV or 0 mV (see Figure Legends). A 40 ms step was added at the beginning and end of the ramp (i.e. at −100 mV, +40 mV or +100 mV). Liquid junction potentials were not corrected.

CC(C)=CCCC(C)=CC=O [citral, 3,7-dimethyl-2,6-octadienal]
Block of TRPV1-like currents evoked by capsaicin (1 µM capsaicin): 94% | Effect on fast inward current (primarily voltage-gated sodium channels) (1 mM citral): partially blocked | Increase of outward currents (1 mM citral, n = 8): 2.7±0.5 fold | Capsaicin response recovered after citral washout (5 minutes after washout, n = 8): 3±1.5% | Potentiation of TRPV1-like current prior to inhibition (capsaicin activation, n = 17): 1.1±0.03 fold | Initial (constitutive) outward current inhibited (citral at pH 5): 79% | Block of TRPV1-like currents evoked by pH 5 solution (pH 5): 100% | Potentiation of TRPV1-like current prior to inhibition (pH 5 activation, n = 20): 1.5±0.1 fold
